Assay results published in patent publication US20160075682A1, “INHIBITORS OF NICOTINAMIDE PHOSPHORIBOSYLTRANSFERASE, COMPOSITIONS, PRODUCTS AND USES THEREOF” (UNIVERSITÀ DEGLI STUDI DEL PIEMONTE ORIENTALE "AMEDEO …, priority 2013, published 2016).

Key:
[1] = Microsomal stability with human liver microsomes; format: in vitro ADME; settings: 50 μM substrate, 1.0 mg/mL protein, 60 minutes at 37° C., pH 7.4
Protocol: (§1) Male Wistar rat liver microsomes (RLM), (protein concentration: 25 mg/ml determined using the Omura and Sato method, total P450: 0.64 nmol/mg protein) were used throughout this study and prepared using an internal protocol. The cryopreserved pooled human liver microsomes (HLM), (pooled mixed sex, ten individual donors, protein concentration: 20 mg/ml, total P450: 0.36 nmol/mg) were purchased from BD Gentest™ (Woburn, Mass.) and used throughout this study.
(§2) The standard incubation mixture (1 ml final volume), was carried out in a 50 mM TRIS (Tris[hydroxymethyl]aminomethane) buffer (pH 7.4) containing 10 μl of acetonitrile (1% of total volume), and 50 μM substrate compounds. After pre-equilibration of the mixture, an appropriate volume of RLM or HLM suspension was added to give a final protein concentration of 1.0 mg/mL. The mixture was shaken for 60 minutes at 37° C. Control incubations were carried out without microsomes. Each incubation was stopped by addition of 1 ml ice-cold acetonitrile, vortexed and centrifuged at 11,000 r.p.m. for 5 min. The supernatants were analysed by LC-DAD-UV and LC-ESI-MS systems to determine the metabolic stability (% substrate residue) and the structure of metabolites respectively (Table 1).
(§3) A Shimadzu HPLC system (Shimadzu, Kyoto, Japan), consisting of two LC-10AD Vp module pumps, an SLC-10A Vp system controller, an SIL-10AD Vp autosampler, and a DGU-14-A on-line degasser were used for the analysis. Chromatographic separation was performed on a Phenomenex Luna C18(2) 150×4.6 mm (5 μm) (Phenomenex srl, Castel Bolognese, Italy) as a stationary phase protected by a C18 SecurityGuard (Phenomenex srl, Castel Bolognese, Italy). The SPD-M10Avp photodiode array detector was used to detect the analytes. LC-Solution 1.24 software was used to process the chromatograms. Aliquots (20 μL) of supernatants obtained from incubations were injected onto the HPLC system and eluted with a mobile phase (flow rate 1.0 mL/min) consisting of a A: 0.5% formic acid solution, B: acetonitrile/methanol 8:2. A Thermo Finningan LCQ Deca XP plus system equipped with a quaternary pump, a Surveyor AS autosampler, a Surveyor photodiode array detector and a vacuum degasser was used for LC/MS analyses (Thermo Electron Corporation, Waltham, Mass.). All the chromatographic separations were performed on a Phenomenex Luna C18(2)150×2 mm (4 μm) (kept at a 35° C.) as a stationary phase protected by a C18 SecurityGuard (Phenomenex srl, Castel Bolognese, Italy). Aliquots (2.0 μl) of supernatants obtained from incubations were injected onto the system and eluted with a mobile phase (flow rate 0.2 ml/min) consisting of a A: 0.2% formic acid solution, B: acetonitrile/methanol 8:2. The eluate was injected into the electrospray ion source (ESI) and MS and MS^n spectra were acquired and processed using Xcalibur® software. The operating conditions on the ion trap mass spectrometer were as follows: Positive mode, spray voltage, 5.30 kV; source current, 80 μA; capillary temperature, 350° C.; capillary voltage, 21.00 V; tube lens offset, 15.00 V; multipole 1 offset, −5.75 V; multipole 2 offset, −9.00 V; sheath gas flow (N2), 55 Auxiliary Units.

[2] = Microsomal stability with rat liver microsomes; format: in vitro ADME, Male Wistar rat; settings: 50 μM substrate, 1.0 mg/mL protein, 60 minutes at 37° C., pH 7.4
Protocol: as §1, §2, §3

[3] = Metabolites generated from hydrolyses in RLM or HLM incubations (LC-ESI-MS); format: in vitro ADME, rat, human; settings: RLM or HLM incubation, 60 minutes at 37° C.
Protocol: as §1, §2, §3

[4] = test system: Dextran-induced colitis in C57/BJ6 mice; test: Experimental colitis induced by dextran sulfate sodium (DSS); format: in vivo; settings: i.p., doses of between 20 mg/Kg and 500 mg/Kg
Protocol: Animal work was authorized by the local ethical committee for animal studies (Università del Piemonte Orientale). Colitis was induced in C57/BJ6 mice (Harlan Nossan, Milan, Italy) by addition of DSS (2%) to their daily drinking water for 7 days followed by a 3-day recovery period without DSS. The severity of colitis was assessed using these set of criteria: (1) clinical index (daily changes in body weight; diarrhea and rectal bleeding); (2) macroscopic evidence of colitis (shortening of colon length). On day 10 of the experiment, animals were sacrificed. Treatments were performed with either solvent alone or drugs once a day for the entire duration of the experiments from day 1 to day 7. The colon lengths were measured and colon tissues were harvested for biochemical measurements, histopathological assessment and scoring. (Tang Y, Preuss F, Turek F W, Jakate S, Keshavarzian A. Sleep deprivation worsens inflammation and delays recovery in a mouse model of colitis. Sleep Med. 2009 June; 10(6):597-603).
As previously described, the colon of DNBS- or dextran treated animals was removed after the induction of colitis. Compounds of formula (I) were administered intraperitoneally (i.p.).

NAMPT = biological target: T1, NAMPT (Homo sapiens, UniProt P43490); test: Direct inhibition of NAMPT enzymatic activity (Cyclex NAMPT colorimetric Assay Kit); format: biochemical; settings: as assessed with a cycling assay
T1 construct: endogenous in cells; host or cells: SH-SY5Y and HeLa
T1 sequence (P43490 whole entry): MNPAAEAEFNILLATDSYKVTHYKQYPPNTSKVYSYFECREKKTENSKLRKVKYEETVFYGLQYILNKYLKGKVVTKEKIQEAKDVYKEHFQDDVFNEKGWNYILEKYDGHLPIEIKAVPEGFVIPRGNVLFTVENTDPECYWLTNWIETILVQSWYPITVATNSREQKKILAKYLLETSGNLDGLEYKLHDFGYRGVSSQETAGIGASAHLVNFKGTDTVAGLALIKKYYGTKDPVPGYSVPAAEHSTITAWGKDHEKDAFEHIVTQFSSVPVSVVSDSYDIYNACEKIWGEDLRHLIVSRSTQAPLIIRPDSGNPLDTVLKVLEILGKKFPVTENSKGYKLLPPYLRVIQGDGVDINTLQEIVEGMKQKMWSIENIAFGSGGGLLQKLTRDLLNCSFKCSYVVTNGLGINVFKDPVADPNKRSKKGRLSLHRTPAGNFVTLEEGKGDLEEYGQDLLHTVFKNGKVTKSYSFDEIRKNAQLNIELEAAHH
Protocol: Determination of the direct activity of compounds on NAMPT was performed using a commercial kit, Cyclex NAMPT colorimetric Assay Kit.

Row | HLM stability % substrate residue (area peak) [1] | RLM stability % substrate residue (area peak) [2] | Metabolites generated from hydrolyses [3] | inhibition of the enzymatic activity of NAMPT (NAMPT) | Compound | protection from Dextran-induced colitis as assessed by the macroscopic damage score [4]
1 | >96% | >98% | no | able to inhibit | c1ccc(-c2ccccc2OCCCCCCn2cc(-c3cccnc3)nn2)cc1 [3-(1-(6-([1,1′-biphenyl]-2-yloxy)hexyl)-1H-1,2,3-triazol-4-yl)pyridine] | able to protect
2 | >99% | >99% | no | able to inhibit | O=C(NCCCCCCCn1cc(-c2cccnc2)nn1)c1ccccc1-c1ccccc1 [N-(7-(4-(pyridin-3-yl)-1H-1,2,3-triazol-1-yl)heptyl)-[1,1′-biphenyl]-2-carboxamide] | able to protect
